Key:
[1] = system: rat tracheas pre-contracted with carbachol; assay: Relaxation of rat trachea pre-contracted with carbachol
Procedure: To assess the potential relaxing effect of the respiratory smooth muscle, rat tracheas were obtained and maintained in an isolated organ bath, as previously described (Coelho et al., 2008). The tracheal segments were then pre-contracted with carbachol at the concentration of 2.5 μM and subjected to increasing concentrations of the tested compounds. All results were expressed as percentage of the contraction produced by carbachol (Coelho et al., 2008).

A/J mice [2] = assay: Methacholine-induced bronchospasm (Penh), whole-body plethysmography; assay type: in vivo; settings: for blocking of methacholine-induced increase of Penh (cholinergic bronchospasm): 30 and 100 mg/kg orally
Procedure: A/J mice of both sexes were used, weighing between 18 and 20 g, coming from the Laboratory Animal Breeding Center of Oswaldo Cruz Foundation. Using barometric whole-body plethysmography (Buxco Research System, Wilmington, N.C.), bronchospasm responses caused by subsequent inhalations of methacholine (12, 25 and 50 mg/ml for 2.5 minutes, 5-minute intervals) were measured in standard A/J mice, awake, not immobilized, as previously reported (Coelho et al., 2008; Hamelmann et al., 1997). Penh measures in response to methacholine challenge were performed 1 hour and 3 hours after treatment with JME-207 and JME-209 (30 and 100 mg/kg) administered orally (gavage).

rat tracheal rings = assay: Inhibition of carbachol-induced contraction of rat tracheal rings (pretreatment); settings: Rattus norvegicus
From the text: In this study, Wistar rats of both sexes were used, weighing between 200 and 250 g, coming from the Laboratory Animal Breeding Center of Fundacdo Oswaldo Cruz. As previously described (Coelho et al., 2008), the animals were sacrificed by exposure to air atmosphere enriched with CO2, Then, the anterior cervical region was opened so that the trachea could be located and removed. It was then transferred to a Petri dish containing Krebs solution with the following composition (mM): NaCl (118), KCl (4.8), CaCl2 (2.5), MgSO4 (1.2), KH2PO4 (1.2), NaHCO3 (24), and glucose (11). The total segment was divided into fragments of about 3 to 4 rings, which were kept in another Petri dish containing Krebs solution. Each fragment was mounted vertically on a 10 ml cuvette with Krebs solution maintained at 37° C. and aerated with carbogen mixture (95% O2 and 5% CO2). The lower rod is fixed to the cuvette base and the top portion was attached to the isometric transducer for measuring the voltage variation of the fragment. The transducer was connected to a device which transforms the voltage variation in digital record. The fragments were subjected to a basal voltage of 1 g and were calibrated, so that the subsequent contractions could be expressed as a percentage of this 1 g voltage. The solutions were introduced inside the cuvettes with the aid of an automatic pipette. The end of the tip was always placed at the same height and position, without touching the muscle. The tracheal rings were initially contracted with 2.5 μM of carbachol. When the contractions reached the plateau, each segment was washed until the total relaxation of the smooth muscle. […] All results were expressed as percentage of the contraction produced by 2.5 μM of carbachol (Coelho et al., 2008).

A/J mice [3] = assay: Ovalbumin asthma model: airway hyperreactivity, leukocyte infiltration, cytokines (nebulization); assay type: in vivo; settings: for IL-5 generation in lung tissue / IL-13 generation in lung tissue / eotaxin-2 generation in lung tissue / increased production of eotaxin-1: nebulization 2%; for airway hyperreactivity (lung resistance and elastance after methacholine): nebulization 2% for 30 minutes, OVA sensitized and challenged
Procedure: Male A/J mice (18-20 g), coming from the Laboratory Animal Breeding Center of Oswaldo Cruz Foundation, were used in the experiments. The animals were previously sensitized with a mixture of ovalbumin (OVA) (50 μg) (Grade V; Sigma, St. Louis, Mo., USA) and aluminum hydroxide (5 mg) administered subcutaneously on day 0 with boost on day 14 (equal suspension administered intraperitoneally). Nasal instillations of OVA (25 μg/25 μl in sterile 0.9% NaCl) were administered on days 14, 21, 28 and 35, with the hyperresponsiveness analysis performed 24 hours after the last challenge. […] That is, the treatments took place after the installation of asthma framework, reflecting a therapeutic action of the respective compounds analyzed.
The effect of the treatments on bronchial hyperreactivity was investigated by measuring the resistance changes and pulmonary elastance, using invasive barometric plethysmography whole-body system (Buxco, USA), as previously described (Olsen et al., 2012).

[4] = system: mast cells of the RBL-2H3 line; assay: Antigen-induced degranulation of sensitized mast cells (beta-hexosaminidase release); assay type: cell-based; settings: Rattus norvegicus; for IC50: RBL-2H3, 1 h, RBL-2H3, DNP-BSA 10 ng/ml, 60 minutes treatment, read-out: IC50 blocking of anaphylactic mast cell degranulation; for Emax: RBL-2H3, DNP-BSA, read-out: EMAX blocking of anaphylactic mast cell degranulation
Procedure: For this study, mast cells of the RBL-2H3 line were used, as previously reported (Beaven et al., 1987). […] The cells were then dissociated from the plate using trypsin, centrifuged at 1000 rpm for 5 minutes and distributed in 48-well plates at a density of 125,000 cells per well. The cells were sensitized with monoclonal DNP-specific […] (1 μg/mL) diluted in the same medium used for the cultivation and maintained in the oven for 20 hours. After this period, the cells were washed with Tyrode-gelatin and subjected to treatment with increasing concentrations of […]-209 or mexiletine for 60 minutes. Then, incubation was performed with DNP-BSA (10 ng/ml) for a further period of 60 minutes. After this period, 10 μL of supernatant were collected from each well and added to a 96-well plate. The cells were lysed with 200 μL of 0.1% Triton X-100 and 10 μL of the lysate of each plate were added to the 96-well plate. Then, 40 μL of substrate for the β-hexosaminidase enzyme were added to the samples. After 40 minutes of reaction, reaction stopping solution (0.2 M glycine) was added, generating a colorimetric response, which was measured by spectrophotometer (λ=405 nm).

A/J mice [5] = assay: Acute airway inflammation induced by cigarette smoke; assay type: in vivo; settings: JME-209 30 and 100 mg/kg
Procedure: Male A/J mice (18-20 g), coming from the Laboratory Animal Breeding Center of Oswaldo Cruz Foundation, were used in the experiments. The animals were placed in a chamber and subjected to an atmosphere enriched with 100 ml of smoke from 4 filter cigarettes (trade mark) for 1 minute on four consecutive days. Control animals were exposed to the condition in which cigarette smoke was replaced by equal volume of ambient air (Castro et al., 2009).
[…] The compounds were dissolved in 0.9% NaCl just prior to administration.
Obtaining of bronchoalveolar lavage, as well as the total and differential leukocyte counts carried out in this effluent, were made as previously described (Olsen et al., 2011). Thus, after 24 hrs of the last exposure to cigarette smoke, the mice were sacrificed by terminal anesthesia with thiopental (500 mg/kg). Then, they had the trachea dissected and cannulated BAL was performed by 3 consecutive lavages of 800 μl of PBS containing EDTA (10 mM). The lavages were then subjected to centrifugation (1500 rpm-10 minutes) and the cell “pellet” resuspended in the volume of 0.5 ml of PBS/EDTA solution 10 mM. The total leukocyte count from the lavage was performed in a Neubauer chamber by light microscopy (100× magnification), diluting an aliquot of the cell suspension from the lavage in TPrk liquid (1:40). The differential counting was performed on cytocentrifuged, which were stained with May-Grunwald-Giemsa and assessed using oil immersion objective (1000× magnification).

A/J mice [6] = assay: LPS-induced lung inflammation and airway hyperreactivity; assay type: in vivo
Procedure: Male A/J mice (18-20 g), coming from the Laboratory Animal Breeding Center of Oswaldo Cruz Foundation, were used in the experiments. The mice were anesthetized with halothane aerosol ([…], SP, Brazil) to receive intranasal administration of LPS (25 μg/25 μl 0.9% NaCl, instillation) or 0.9% NaCl (25 μl) (negative control). […] Obtaining of bronchoalveolar lavage, as well as the total and differential leukocyte counts carried out in this effluent, were made as previously described (Kummerle et al., 2012). Thus, after 18 hrs of LPS instillation, the mice were sacrificed by terminal anesthesia with thiopental (500 mg/kg). Then, they had the trachea dissected and cannulated. Bronchoalveolar lavage (BAL) was performed by 3 consecutive lavages of 800 μl of PBS containing EDTA (10 mM). The lavages were then subjected to centrifugation (1500 rpm-10 minutes) and the cell “pellet” resuspended in the volume of 0.5 ml of PBS/EDTA solution 10 mM. The total leukocyte count from the lavage was performed in a Neubauer chamber by light microscopy (100× magnification), diluting an aliquot of the cell suspension from the lavage in TPrk liquid (1:40). The differential counting was performed on cytocentrifuged, which were stained with May-Grunwald-Giemsa and assessed using oil immersion objective (1000× magnification) (Kummerle et al., 2012). The airway hyperreactivity was also assessed 18 hours after LPS, by exposing the animals to increasing concentrations of aerosolized methacholine (3-27 mg/ml) in FinePoint R/C Buxco® system (Buxco Electronics, Sharon, Conn., USA). The mice were anesthetized with Nembutal (60 mg/kg, i.p.) for the tracheostomy procedure and connection of the animal to mechanical ventilation and pneumotachograph of the FinePoint platform. The neuromuscular activity was blocked with pancuronium bromide (1 mg/kg, i.v.) to enable the pulmonary resistance records (cm H20/mL/s) and elastance (cm H20/mL) in each respiratory cycle, as previously reported (Olsen et al., 2011).

tracheal rings = assay: Anaphylactic (ovalbumin-induced) contraction of tracheal rings from sensitized rats; parameters: species or system Wistar rats; settings: compound 30 μM
Procedure: In this study, Wistar rats of both sexes were used, weighing between 200 and 250 g, coming from the Laboratory Animal Breeding Center of Fundacdo Oswaldo Cruz. As described previously (da Costa et al., 2007), the animals were sensitized by injection into the dorsal subcutaneous tissue with mixture containing 50 μg of ovalbumin and 5 mg of aluminum hydroxide on days 0 and 7. On the 14th day after the first sensitization, the animals were sacrificed for the removal of the trachea. After a stabilization period of 30 minutes, the tracheal rings were contracted initially with carbachol (2.5 μM) for testing the feasibility and reproducibility of the responses of the preparation.
The tracheal rings were exposed to increasing concentrations of JME-173 (3-30 μM), or carrier (0.9% NaCl) for 30 minutes before the triggering of the contractile response triggered by ovalbumin (100 μg/ml). Salmeterol (30 μM) was used as reference treatment. The responses were expressed as mean±Standard Error of the Mean of at least 5 tracheal segments. All results were expressed as percentage of the contraction produced by 2.5 μM of carbachol.

[7] = 30 and 100 mg/kg orally 1 hour before LPS

Cc1cc(I)ccc1OCC(C)N.Cl (centres unmarked) [JME-207]
EC50 ([1]; Rattus norvegicus, trachea pre-contracted with carbachol 2.5 μM, mean±SEM): 1000 µM | times more potent as relaxation inducers than mexiletine ([1]; pre-contracted trachea): 146 times | maximum relaxation effect ([1]; trachea pre-contracted with carbachol 2.5 μM, mean±SEM): 111% | blocking of methacholine-induced increase of Penh (cholinergic bronchospasm) (A/J mice [2]; 3 hours after treatment): significantly inhibited | IC50 (rat tracheal rings; carbachol 10 μM, pretreated 10 minutes): 40.9 µM | Emax (rat tracheal rings; carbachol 10 μM, pretreated 10 minutes, mean ± SEM, read-out: EMAX maximum effect of inhibition of carbachol-induced contraction): 92.9 ± 4.3% | inhibition at 100 µM (rat tracheal rings; compound 100 μM, pre-treatment 10 minutes, read-out: inhibition of the muscarinic contraction): ~93% | IL-5 generation in lung tissue (A/J mice [3]): equally sensitive | IL-13 generation in lung tissue (A/J mice [3]): equally sensitive | eotaxin-2 generation in lung tissue (A/J mice [3]): only the latter inhibited | increased production of eotaxin-1 (A/J mice [3]): failed to modify | airway hyperreactivity (lung resistance and elastance after methacholine) (A/J mice [3]): abolished | IC50 [4]: 2.3 µM | Emax [4]: 94%

CC(N)COc1cccc(I)c1.Cl (centres unmarked) [JME-141]
airway hyperreactivity (lung resistance and elastance after methacholine) (A/J mice [3]): abolished

CC(N)COc1ccc(-c2ccccc2)cc1.Cl (centres unmarked) [JME-209]
eosinophils in bronchoalveolar effluent (A/J mice [5]; dexamethasone 1 mg/kg, orally): blocked | mononuclear cells in bronchoalveolar effluent (A/J mice [5]; dexamethasone 1 mg/kg, orally): blocked | neutrophils in bronchoalveolar effluent (A/J mice [5]; dexamethasone 1 mg/kg, orally): blocked | accumulation of total leukocytes in bronchoalveolar space (A/J mice [5]; dexamethasone 3 mg/kg, orally 1 hr before smoke): significantly inhibited | action time (A/J mice [2]; 100 mg/kg orally): at least 3 hours | blocking of methacholine-induced increase of Penh (cholinergic bronchospasm) (A/J mice [2]; 1 hour after treatment): slight blocking | blocking of methacholine-induced increase of Penh (cholinergic bronchospasm) (A/J mice [2]; 3 hours after treatment): active only at the highest dose | increase in the number of mononuclear cells in bronchoalveolar lavage (A/J mice [6]; [7]): without significantly altering | levels of eosinophils in bronchoalveolar lavage (A/J mice [6]; [7]): reducing | levels of neutrophils in bronchoalveolar lavage (A/J mice [6]; [7]): reducing | leukocyte infiltration in bronchoalveolar space (A/J mice [6]; 30 and 100 mg/kg orally 1 hour before LPS, 18 hours after challenge): inhibited | airway hyperreactivity (lung resistance and elastance) (A/J mice [6]; oral treatment 1 hour before LPS, 18 hours after LPS): inhibited | IC50 [4]: 28.6 µM | Emax [4]: 100%

CC(N)COc1ccc(F)c(Cl)c1.Cl (centres unmarked) [JME-188]
IL-5 generation in lung tissue (A/J mice [3]): equally sensitive | IL-13 generation in lung tissue (A/J mice [3]): equally sensitive | eotaxin-2 generation in lung tissue (A/J mice [3]): inhibited | increased production of eotaxin-1 (A/J mice [3]): failed to modify | airway hyperreactivity (lung resistance and elastance after methacholine) (A/J mice [3]): abolished

OCc1cc(C(O)CNCCCCCCOCCCCc2ccccc2)ccc1O (centres unmarked) [salmeterol, reference compound]
blocking of anaphylactic contraction (tracheal rings): 52%
